Results published in US10550112B2, “Pyrimidines as EGFR inhibitors and methods of treating disorders” (Dana-Farber Cancer Institute, Inc., priority 2015, dated 2020).

Columns and labels:
Assay type in all cases: cell-based, Murine
[1] = target: EGFR InsSVD Ba/F3 cell line (Homo sapiens, UniProt P00533, DUP768-770, cells depend on it); assay: Ba/F3 cell proliferation MTS assay, EGFR InsSVD; conditions: EGFR InsSVD (D770_N771insSVD) Ba/F3 cells, 72 hours
Protocol: (§1) Different EGFR exon 20 insertion mutations were introduced via site directed mutagenesis into full length EGFR using the Quick Change Site-Directed Mutagenesis kit (Stratagene; La Jolla, Calif.) according to the manufacturer's instructions. All constructs were confirmed by DNA sequencing. The constructs were shuttled into the retroviral vector JP1540 using the BD Creator™ System (BD Biosciences). […] Stable clones were obtained by selection in puromycin (2 μg/ml) and growth in IL-3 free media.
(§2) Murine Ba/F3 cells engineered to express mutant and wild type EGFR or HER2 protein were used to perform single drug screens. Cell viability was assessed after 72 hours of compound exposure using the colorimetric cell proliferation MTS assay kit (Promega).
(§3) The curves were fitted using a non-linear regression model with a sigmoidal dose response.

[2] = target: EGFR wild type Ba/F3 cell line (Homo sapiens, UniProt P00533, cells depend on it, form not given); assay: Ba/F3 cell proliferation MTS assay, EGFR wild type; conditions: 72 hours
[3] = target: HER2 InsYVMA Ba/F3 cell line (Homo sapiens, UniProt P04626, DUP772-775, cells depend on it); assay: Ba/F3 cell proliferation MTS assay, HER2 InsYVMA; conditions: 72 hours;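 note: murine Ba/F3 cells engineered to carry mutant HER2, viability read colorimetrically by MTS after 72 h of exposure, EC50 from sigmoidal non-linear regression of dose response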
HER2 InsYVMA Ba/F3 cell line, sequence (P04626 with tags, fused parts or gaps DUP772-775): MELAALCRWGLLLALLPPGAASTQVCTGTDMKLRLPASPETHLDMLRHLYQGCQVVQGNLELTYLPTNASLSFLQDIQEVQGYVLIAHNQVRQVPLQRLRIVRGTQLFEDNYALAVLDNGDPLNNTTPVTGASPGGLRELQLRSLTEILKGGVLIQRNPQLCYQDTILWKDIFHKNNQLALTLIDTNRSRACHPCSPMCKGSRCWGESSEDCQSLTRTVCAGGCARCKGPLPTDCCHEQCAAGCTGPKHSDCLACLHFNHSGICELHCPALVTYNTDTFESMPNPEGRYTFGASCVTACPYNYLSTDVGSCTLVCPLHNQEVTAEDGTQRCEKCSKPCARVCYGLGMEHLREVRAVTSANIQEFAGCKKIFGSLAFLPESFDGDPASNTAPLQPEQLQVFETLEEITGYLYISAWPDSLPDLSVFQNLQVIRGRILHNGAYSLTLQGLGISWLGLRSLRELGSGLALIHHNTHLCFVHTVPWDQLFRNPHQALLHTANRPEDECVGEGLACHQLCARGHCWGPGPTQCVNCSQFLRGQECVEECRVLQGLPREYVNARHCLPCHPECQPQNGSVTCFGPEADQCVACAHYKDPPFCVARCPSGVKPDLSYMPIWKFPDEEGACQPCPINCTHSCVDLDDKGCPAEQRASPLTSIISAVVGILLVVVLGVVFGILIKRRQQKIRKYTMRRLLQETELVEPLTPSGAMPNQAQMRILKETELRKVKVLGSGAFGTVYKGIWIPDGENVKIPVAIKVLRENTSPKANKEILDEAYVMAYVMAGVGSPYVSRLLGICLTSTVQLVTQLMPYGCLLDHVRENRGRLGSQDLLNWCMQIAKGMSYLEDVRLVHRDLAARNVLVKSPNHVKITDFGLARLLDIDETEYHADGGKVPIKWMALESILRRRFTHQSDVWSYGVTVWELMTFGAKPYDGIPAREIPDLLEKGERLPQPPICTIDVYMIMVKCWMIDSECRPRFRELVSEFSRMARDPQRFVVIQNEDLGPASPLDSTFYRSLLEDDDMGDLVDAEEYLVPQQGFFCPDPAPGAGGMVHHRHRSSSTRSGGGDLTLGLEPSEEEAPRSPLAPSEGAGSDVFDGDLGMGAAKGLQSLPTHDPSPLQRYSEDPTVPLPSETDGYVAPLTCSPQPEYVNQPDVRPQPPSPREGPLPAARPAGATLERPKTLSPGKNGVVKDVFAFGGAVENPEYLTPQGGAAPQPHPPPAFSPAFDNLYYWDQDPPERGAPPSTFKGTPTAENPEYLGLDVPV
Protocol: as §2, §3

[4] = target: EGFR InsGY Ba/F3 cell line (Homo sapiens, UniProt P00533, DELINS770-770GY, cells depend on it); assay: Ba/F3 cell proliferation MTS assay, EGFR InsGY; conditions: EGFR InsGY (D770delinsGY) Ba/F3 cells, 72 hours
EGFR InsGY Ba/F3 cell line, sequence (P00533 with tags, fused parts or gaps DELINS770-770GY): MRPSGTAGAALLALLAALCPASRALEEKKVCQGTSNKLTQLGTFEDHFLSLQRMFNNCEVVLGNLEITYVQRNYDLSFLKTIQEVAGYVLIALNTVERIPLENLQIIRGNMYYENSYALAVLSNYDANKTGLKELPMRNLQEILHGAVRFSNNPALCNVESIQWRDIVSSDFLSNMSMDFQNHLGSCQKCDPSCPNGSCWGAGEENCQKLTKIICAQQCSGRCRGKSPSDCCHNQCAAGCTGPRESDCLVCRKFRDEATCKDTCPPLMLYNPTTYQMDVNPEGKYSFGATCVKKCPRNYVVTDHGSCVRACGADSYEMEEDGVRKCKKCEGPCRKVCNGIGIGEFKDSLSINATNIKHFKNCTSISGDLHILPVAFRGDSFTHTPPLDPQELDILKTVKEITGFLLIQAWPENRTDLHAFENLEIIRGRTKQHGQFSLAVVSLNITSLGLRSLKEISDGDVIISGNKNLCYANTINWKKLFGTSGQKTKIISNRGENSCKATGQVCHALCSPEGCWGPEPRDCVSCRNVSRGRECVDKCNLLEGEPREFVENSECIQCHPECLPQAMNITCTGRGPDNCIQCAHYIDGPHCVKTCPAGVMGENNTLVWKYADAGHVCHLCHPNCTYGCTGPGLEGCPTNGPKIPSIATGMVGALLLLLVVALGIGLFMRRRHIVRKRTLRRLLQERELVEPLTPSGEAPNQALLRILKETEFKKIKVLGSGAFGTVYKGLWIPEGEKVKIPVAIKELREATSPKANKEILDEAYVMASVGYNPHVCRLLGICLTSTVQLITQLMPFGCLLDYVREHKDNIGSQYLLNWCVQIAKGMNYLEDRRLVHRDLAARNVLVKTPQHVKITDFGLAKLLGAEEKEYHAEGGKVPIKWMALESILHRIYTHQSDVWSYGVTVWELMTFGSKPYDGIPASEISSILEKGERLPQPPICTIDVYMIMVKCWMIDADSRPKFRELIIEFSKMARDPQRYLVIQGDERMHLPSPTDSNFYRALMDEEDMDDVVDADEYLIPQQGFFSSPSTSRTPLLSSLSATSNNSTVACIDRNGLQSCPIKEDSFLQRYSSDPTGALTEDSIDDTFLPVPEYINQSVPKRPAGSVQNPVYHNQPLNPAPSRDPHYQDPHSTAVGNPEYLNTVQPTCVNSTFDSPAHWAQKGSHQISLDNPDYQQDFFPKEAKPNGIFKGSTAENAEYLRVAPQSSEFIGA
Protocol: as §1, §2, §3

[5] = target: EGFR InsASV Ba/F3 cell line (Homo sapiens, UniProt P00533, DUP767-769, cells depend on it); assay: Ba/F3 cell proliferation MTS assay, EGFR InsASV; conditions: EGFR InsASV (V769_D770insASV) Ba/F3 cells, 72 hours
Protocol: as §1, §2, §3

[6] = target: HER2 wild type Ba/F3 cell line (Homo sapiens, UniProt P04626); assay: Ba/F3 cell proliferation MTS assay, HER2 wild type; conditions: HER2 wild type Ba/F3 cells, 72 hours
HER2 wild type Ba/F3 cell line, sequence (P04626 whole entry, change not shown): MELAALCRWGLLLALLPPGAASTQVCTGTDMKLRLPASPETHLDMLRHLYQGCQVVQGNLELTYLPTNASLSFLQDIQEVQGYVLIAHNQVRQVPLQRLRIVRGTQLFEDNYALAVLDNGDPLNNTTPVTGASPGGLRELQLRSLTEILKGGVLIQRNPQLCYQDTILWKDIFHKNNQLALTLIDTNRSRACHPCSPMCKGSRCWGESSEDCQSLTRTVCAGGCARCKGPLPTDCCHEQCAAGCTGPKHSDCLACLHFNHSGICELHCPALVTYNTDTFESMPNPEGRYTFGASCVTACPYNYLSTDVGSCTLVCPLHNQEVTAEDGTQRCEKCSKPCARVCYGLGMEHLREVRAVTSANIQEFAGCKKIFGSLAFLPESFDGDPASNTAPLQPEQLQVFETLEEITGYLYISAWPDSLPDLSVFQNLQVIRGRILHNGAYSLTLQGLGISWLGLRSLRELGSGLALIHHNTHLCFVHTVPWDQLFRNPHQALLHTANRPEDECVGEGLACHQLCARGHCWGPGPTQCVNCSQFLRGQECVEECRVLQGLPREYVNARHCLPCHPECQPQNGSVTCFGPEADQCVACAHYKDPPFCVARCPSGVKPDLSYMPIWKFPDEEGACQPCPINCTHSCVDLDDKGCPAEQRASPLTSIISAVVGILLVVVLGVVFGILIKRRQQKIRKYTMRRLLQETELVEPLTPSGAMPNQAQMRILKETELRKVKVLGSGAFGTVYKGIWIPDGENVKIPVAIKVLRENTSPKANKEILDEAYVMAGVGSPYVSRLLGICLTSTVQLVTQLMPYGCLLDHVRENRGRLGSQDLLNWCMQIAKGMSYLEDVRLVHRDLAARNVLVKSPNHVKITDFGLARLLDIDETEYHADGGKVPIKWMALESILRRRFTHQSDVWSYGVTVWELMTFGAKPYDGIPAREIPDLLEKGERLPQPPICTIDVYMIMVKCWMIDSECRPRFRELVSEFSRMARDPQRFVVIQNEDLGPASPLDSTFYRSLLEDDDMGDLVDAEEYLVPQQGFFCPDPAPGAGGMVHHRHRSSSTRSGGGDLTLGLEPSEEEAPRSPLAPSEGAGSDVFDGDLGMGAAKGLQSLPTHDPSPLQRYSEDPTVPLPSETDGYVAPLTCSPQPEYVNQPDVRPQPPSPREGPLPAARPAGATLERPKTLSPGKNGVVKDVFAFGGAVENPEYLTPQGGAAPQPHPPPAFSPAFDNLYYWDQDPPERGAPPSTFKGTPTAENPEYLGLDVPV
Protocol: as §2, §3

EGFR InsSVD Ba/F3 cell line, sequence (P00533 with tags, fused parts or gaps DUP768-770): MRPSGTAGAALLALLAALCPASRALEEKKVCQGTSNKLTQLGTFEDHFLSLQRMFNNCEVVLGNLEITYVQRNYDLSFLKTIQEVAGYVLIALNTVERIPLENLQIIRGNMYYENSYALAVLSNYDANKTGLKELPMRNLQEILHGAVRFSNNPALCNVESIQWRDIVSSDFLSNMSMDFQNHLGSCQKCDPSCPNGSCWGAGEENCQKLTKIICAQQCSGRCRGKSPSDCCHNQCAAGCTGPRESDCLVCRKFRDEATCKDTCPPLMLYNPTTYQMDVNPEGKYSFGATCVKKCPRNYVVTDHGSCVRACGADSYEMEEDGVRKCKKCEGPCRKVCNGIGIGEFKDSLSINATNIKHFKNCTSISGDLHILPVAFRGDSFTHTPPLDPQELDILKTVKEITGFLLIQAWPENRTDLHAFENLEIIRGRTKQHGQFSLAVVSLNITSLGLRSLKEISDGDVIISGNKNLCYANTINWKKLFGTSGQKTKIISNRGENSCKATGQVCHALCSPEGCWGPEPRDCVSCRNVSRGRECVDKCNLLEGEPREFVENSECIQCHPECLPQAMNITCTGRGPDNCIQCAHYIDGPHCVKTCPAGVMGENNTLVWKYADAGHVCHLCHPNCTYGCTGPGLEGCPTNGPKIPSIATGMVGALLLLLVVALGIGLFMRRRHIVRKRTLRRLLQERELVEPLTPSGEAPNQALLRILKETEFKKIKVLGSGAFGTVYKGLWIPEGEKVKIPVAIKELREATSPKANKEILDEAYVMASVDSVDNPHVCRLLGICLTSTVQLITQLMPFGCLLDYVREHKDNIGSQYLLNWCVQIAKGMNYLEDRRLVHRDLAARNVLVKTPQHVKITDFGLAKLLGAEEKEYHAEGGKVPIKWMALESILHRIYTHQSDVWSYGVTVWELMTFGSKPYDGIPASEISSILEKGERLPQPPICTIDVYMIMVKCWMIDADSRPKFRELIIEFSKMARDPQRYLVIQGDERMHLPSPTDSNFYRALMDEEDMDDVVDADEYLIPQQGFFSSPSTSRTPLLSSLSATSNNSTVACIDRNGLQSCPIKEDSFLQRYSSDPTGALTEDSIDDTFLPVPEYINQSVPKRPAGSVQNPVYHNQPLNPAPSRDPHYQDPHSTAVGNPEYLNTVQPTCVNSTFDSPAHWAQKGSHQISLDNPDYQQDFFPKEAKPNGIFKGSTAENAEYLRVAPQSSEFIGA

EC50 [1] [nM] | EC50 [2] [nM] | EC50 [3] [nM] | EC50 [4] [nM] | EC50 [5] [nM] | EC50 [6] [nM] | SMILES
100 to 500 | < 100 | < 100 | 100 to 500 |  | < 100 | C=CC(=O)Nc1cccc(N(C(=O)OCc2ccc(F)cc2)c2ccnc(Nc3cnn(CC(=O)NC)c3)n2)c1 [Compound I-31, 4-fluorobenzyl (3-acrylamidophenyl)(2-((1-(2-(methylamino)-2-oxoethyl)-1H-pyrazol-4-yl)amino)pyrimidin-4-yl)carbamate]
 | 100 to 500 | > 1000 |  |  | 100 to 500 | Cn1cc(Nc2nccc(N(C(=O)OCc3ccc(F)cc3)c3cccc(NC(=O)/C=C/CN4CCC(O)CC4)c3)n2)cn1 [Compound I-25, 4-fluorobenzyl (E)-(3-(4-(4-hydroxypiperidin-1-yl)but-2-enamido)phenyl)(2-((1-methyl-1H-pyrazol-4-yl)amino)pyrimidin-4-yl)carbamate]
< 100 | < 100 | 100 to 500 | < 100 |  | < 100 | C=CC(=O)Nc1cccc(N(C(=O)OCc2cccc(F)c2)c2ccnc(Nc3ccn(C)n3)n2)c1 [Compound I-2, 3-fluorobenzyl (3-acrylamidophenyl)(2-((1-methyl-1H-pyrazol-3-yl)amino)pyrimidin-4-yl)carbamate]
100 to 500 | < 100 | 100 to 500 | 100 to 500 |  | < 100 | C=CC(=O)Nc1cccc(N(C(=O)OCc2ccc(F)cc2)c2ccnc(Nc3cnn(C)c3C(F)(F)F)n2)c1 [Compound I-23, 4-fluorobenzyl (3-acrylamidophenyl)(2-((1-methyl-5-(trifluoromethyl)-1H-pyrazol-4-yl)amino)pyrimidin-4-yl)carbamate]
500 to 1000 | 500 to 1000 | > 1000 | 100 to 500 |  | 500 to 1000 | C=CC(=O)Nc1cccc(N(C(=O)OCc2cc3ccccc3s2)c2ccnc(Nc3ccn(C)n3)n2)c1 [Compound I-6, benzo[b]thiophen-2-ylmethyl (3-acrylamidophenyl)(2-((1-methyl-1H-pyrazol-3-yl)amino)pyrimidin-4-yl)carbamate]
< 100 | < 100 | < 100 | < 100 |  | < 100 | C=CC(=O)Nc1cccc(N(C(=O)OCc2ccc(F)cc2)c2ccnc(Nc3cnn(C4CCN(C)CC4)c3)n2)c1 [Compound I-30, 4-fluorobenzyl (3-acrylamidophenyl)(2-((1-(1-methylpiperidin-4-yl)-1H-pyrazol-4-yl)amino)pyrimidin-4-yl)carbamate]
< 100 | < 100 | < 100 | < 100 |  | < 100 | C=CC(=O)Nc1cccc(N(C(=O)OCc2ccc(F)cc2)c2ccnc(Nc3cnn(C)c3C)n2)c1 [Compound I-22, 4-fluorobenzyl (3-acrylamidophenyl)(2-((1,5-dimethyl-1H-pyrazol-4-yl)amino)pyrimidin-4-yl)carbamate]
500 to 1000 | < 100 | < 100 | 500 to 1000 |  | < 100 | Cn1cc(Nc2nccc(N(C(=O)OCc3ccc(F)cc3)c3cccc(NC(=O)/C=C/CN4CCCCCC4)c3)n2)cn1 [Compound I-27, 4-fluorobenzyl (E)-(3-(4-(azepan-1-yl)but-2-enamido)phenyl)(2-((1-methyl-1H-pyrazol-4-yl)amino)pyrimidin-4-yl)carbamate]
 | > 1000 |  | > 1000 |  | > 1000 | C=CC(=O)Nc1cccc(N(C(=O)OCc2csc3ccccc23)c2ccnc(Nc3ccn(C)n3)n2)c1 [Compound I-18, benzo[b]thiophen-3-ylmethyl (3-acrylamidophenyl)(2-((1-methyl-1H-pyrazol-3-yl)amino)pyrimidin-4-yl)carbamate]
100 to 500 | < 100 | < 100 | < 100 |  | < 100 | C=CC(=O)Nc1cccc(N(C(=O)OCc2ccc(F)cc2)c2ccnc(Nc3cnn(CCN4CCOCC4)c3)n2)c1 [Compound I-20, 4-fluorobenzyl (3-acrylamidophenyl)(2-((1-(2-morpholinoethyl)-1H-pyrazol-4-yl)amino)pyrimidin-4-yl)carbamate]
< 100 | < 100 | < 100 | < 100 |  | < 100 | C=CC(=O)Nc1cccc(N(C(=O)OCc2ccc(F)cc2)c2ccnc(Nc3cnn(C4CCN(C)C4)c3)n2)c1 (stereo not drawn) [Compound I-32, 4-fluorobenzyl (3-acrylamidophenyl)(2-((1-(1-methylpyrrolidin-3-yl)-1H-pyrazol-4-yl)amino)pyrimidin-4-yl)carbamate]
> 1000 | < 100 | < 100 | 500 to 1000 |  | < 100 | CN(C)C/C=C/C(=O)Nc1cccc(N(C(=O)OCc2ccc(F)cc2)c2ccnc(Nc3cnn(C)c3)n2)c1 [Compound I-28, 4-fluorobenzyl (E)-(3-(4-(dimethylamino)but-2-enamido)phenyl)(2-((1-methyl-1H-pyrazol-4-yl)amino)pyrimidin-4-yl)carbamate]

The remaining lines, values behind:

SMILES | EC50 [1] [nM] | EC50 [2] [nM] | EC50 [3] [nM] | EC50 [4] [nM] | EC50 [5] [nM] | EC50 [6] [nM]
C=CC(=O)Nc1cccc(N(C(=O)OCc2csc3ccccc23)c2ccnc(Nc3cnn(C)c3)n2)c1 [Compound I-19, benzo[b]thiophen-3-ylmethyl (3-acrylamidophenyl)(2-((1-methyl-1H-pyrazol-4-yl)amino)pyrimidin-4-yl)carbamate] | > 1000 | 100 to 500 | > 1000 | > 1000 | > 1000 | 100 to 500
C=CC(=O)Nc1cccc(N(C(=O)OCc2ccc(F)nc2)c2ccnc(Nc3ccn(C)n3)n2)c1 [Compound I-12, (6-fluoropyridin-3-yl)methyl (3-acrylamidophenyl)(2-((1-methyl-1H-pyrazol-3-yl)amino)pyrimidin-4-yl)carbamate] | 500 to 1000 | 100 to 500 | > 1000 | 500 to 1000 | > 1000 | 100 to 500
C=CC(=O)Nc1cccc(N(C(=O)OCc2ccc(F)cc2)c2ccnc(Nc3ccn(C)n3)n2)c1 [Compound I-4, 4-fluorobenzyl (3-acrylamidophenyl)(2-((1-methyl-1H-pyrazol-3-yl)amino)pyrimidin-4-yl)carbamate] | < 100 | < 100 | < 100 | < 100 |  | < 100
C=CC(=O)Nc1cccc(N(C(=O)O[C@H](C)c2ccc(F)cc2)c2ccnc(Nc3ccn(C)n3)n2)c1 [Compound I-14, (R)-1-(4-fluorophenyl)ethyl (3-acrylamidophenyl)(2-((1-methyl-1H-pyrazol-3-yl)amino)pyrimidin-4-yl)carbamate] | 500 to 1000 | 100 to 500 |  | 500 to 1000 | > 1000 | 500 to 1000
C=CC(=O)Nc1cccc(N(C(=O)OCc2ccc(F)cc2F)c2ccnc(Nc3cnn(C)c3)n2)c1 [Compound I-29, 2,4-difluorobenzyl (3-acrylamidophenyl)(2-((1-methyl-1H-pyrazol-4-yl)amino)pyrimidin-4-yl)carbamate] | < 100 | < 100 | < 100 | < 100 |  | < 100
Cn1cc(Nc2nccc(N(C(=O)OCc3ccc(F)cc3)c3cccc(NC(=O)/C=C/CN4CCCCC4)c3)n2)cn1 [Compound I-24, 4-fluorobenzyl (E)-(2-((1-methyl-1H-pyrazol-4-yl)amino)pyrimidin-4-yl)(3-(4-(piperidin-1-yl)but-2-enamido)phenyl)carbamate] | 500 to 1000 | < 100 | < 100 | 100 to 500 |  | < 100
C=CC(=O)Nc1cccc(N(C(=O)OCc2cccc(F)c2)c2ccnc(Nc3cnn(C)c3)n2)c1 [Compound I-3, 3-fluorobenzyl (3-acrylamidophenyl)(2-((1-methyl-1H-pyrazol-4-yl)amino)pyrimidin-4-yl)carbamate] | < 100 | < 100 | < 100 | < 100 |  | < 100
C=CC(=O)Nc1cccc(N(C(=O)OCc2ccc(F)cc2)c2ccnc(Nc3cnn(C)c3)n2)c1 [Compound I-5, 4-fluorobenzyl (3-acrylamidophenyl)(2-((1-methyl-1H-pyrazol-4-yl)amino)pyrimidin-4-yl)carbamate] | < 100 | < 100 | < 100 | < 100 |  | < 100
C=CC(=O)Nc1cccc(N(C(=O)OCc2cc3ccccc3s2)c2ccnc(Nc3cnn(C)c3)n2)c1 [Compound I-7, benzo[b]thiophen-2-ylmethyl (3-acrylamidophenyl)(2-((1-methyl-1H-pyrazol-4-yl)amino)pyrimidin-4-yl)carbamate] | 100 to 500 | 100 to 500 | 500 to 1000 | < 100 |  | 100 to 500
Cn1cc(Nc2nccc(N(C(=O)OCc3ccc(F)cc3)c3cccc(NC(=O)/C=C/CN4CCOCC4)c3)n2)cn1 [Compound I-26, 4-fluorobenzyl (E)-(2-((1-methyl-1H-pyrazol-4-yl)amino)pyrimidin-4-yl)(3-(4-morpholinobut-2-enamido)phenyl)carbamate] | 500 to 1000 | < 100 | 100 to 500 | 100 to 500 |  | < 100
